Source: patent US11046714B2, “2,2-difluorodioxolo A2A receptor antagonists” (Merck Sharp & Dohme Corp., priority 2013, dated 2021)

molecular target: human A2A receptor (Homo sapiens (Human), UniProt P29274); test: competition binding assay using Scintillation Proximity technology; conditions: membranes from CHO-K1 cells expressing the human A2a receptor; 2.0 nM tritiated compound; Cheng-Prusoff
Outline: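 Membranes (1.0 μg) from CHO-K1 cells expressing human A2A were treated with adenosine deaminase, then incubated 1 h at room temperature with compound (3000–0.15 nM) and 2.0 nM tritiated SCH-type ligand on WGA SPA beads in PBS plus 10 mM MgCl2. Nonspecific binding was defined with 1 μM CGS 15943. Ki was derived from EC50 via Cheng-Prusoff.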

Sequence of human A2A receptor (P29274 whole entry): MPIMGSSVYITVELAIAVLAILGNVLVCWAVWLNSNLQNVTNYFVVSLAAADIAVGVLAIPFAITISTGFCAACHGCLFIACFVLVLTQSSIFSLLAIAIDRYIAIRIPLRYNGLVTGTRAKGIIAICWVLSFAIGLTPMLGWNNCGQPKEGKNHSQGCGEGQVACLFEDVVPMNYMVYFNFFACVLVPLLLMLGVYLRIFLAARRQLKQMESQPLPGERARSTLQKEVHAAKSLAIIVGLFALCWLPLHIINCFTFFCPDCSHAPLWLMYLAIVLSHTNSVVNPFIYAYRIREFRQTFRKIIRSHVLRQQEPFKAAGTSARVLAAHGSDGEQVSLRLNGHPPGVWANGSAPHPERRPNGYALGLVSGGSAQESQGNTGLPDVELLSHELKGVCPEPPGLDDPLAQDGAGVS

Compound | Ki
C[C@H](Cc1nc2c3ccc4c(c3nc(N)n2n1)OC(F)(F)O4)N1Cc2ccncc2C1 [Example 74, (R)-8-(2-(1H-pyrrolo[3,4-c]pyridin-2(3H)-yl)propyl)-2,2-difluoro-[1,3]dioxolo[4,5-h][1,2,4]triazolo[1,5-c]quinazolin-5-amine] | 7.1 nM
Nc1nc2c3c(ccc2c2nc(CN4Cc5ccc(C(F)(F)F)cc5C4)nn12)OC(F)(F)O3 [Example 123, 2,2-difluoro-8-{[5-(trifluoromethyl)-1,3-dihydro-2H-isoindol-2-yl]methyl} [1,3]dioxolo[4,5-h][1,2,4]triazolo[1,5-c]quinazolin-5-amine] | 4.9 nM
C[C@@H]1CN(CCc2nc3c4ccc5c(c4nc(N)n3n2)OC(F)(F)O5)CCO1 [Example 42, 2,2-difluoro-8-{2-[(2R)-2-methylmorpholin-4-yl]ethyl}[1,3]dioxolo[4,5-h][1,2,4]triazolo[1,5-c]quinazolin-5-amine] | 11 nM
Nc1nc2c3c(ccc2c2nc(C4CCCN(c5cncnc5)C4)nn12)OC(F)(F)O3 (single isomer, unassigned) [Example 146, (R or S)-2,2-difluoro-8-(1-pyrimidin-5-ylpiperidin-3-yl)[1,3]dioxolo[4,5-h][1,2,4]triazolo[1,5-c]quinazolin-5-amine] | 44 nM
Nc1nc2c3c(ccc2c2nc(C4CCCN(CCC(F)(F)F)C4)nn12)OC(F)(F)O3 (single isomer, unassigned) [Example 141, (R or S)-2,2-difluoro-8-(1-(3,3,3-trifluoropropyl)piperidin-3-yl)-[1,3]dioxolo[4,5-h][1,2,4]triazolo[1,5-c]quinazolin-5-amine] | 55 nM
Nc1nc2c3c(ccc2c2nc(CCN4C[C@H]5CCCN[C@H]5C4)nn12)OC(F)(F)O3 [Example 51, 2,2-difluoro-8-{2-[(4aR,7aR)-octahydro-6H-pyrrolo[3,4-b]pyridin-6-yl]ethyl}[1,3]dioxolo [4,5-h][1,2,4]triazolo[1,5-c]quinazolin-5-amine] | 55 nM
Nc1nc2c3c(ccc2c2nc([C@@H]4CCCN(CC(F)F)C4)nn12)OC(F)(F)O3 [Example 139, (R)-8-(1-(2,2-difluoroethyl)piperidin-3-yl)-2,2-difluoro-[1,3]dioxolo[4,5-h][1,2,4]triazolo[1,5-c]quinazolin-5-amine] | 1.5 nM
Nc1nc2c3c(ccc2c2nc(CCN4CC5CNC[C@H]5C4)nn12)OC(F)(F)O3 (stereo partly drawn) [Example 52, 2,2-difluoro-8-{2-[(3aS)-hexahydropyrrolo[3,4-c]pyrrol-2(1H)-yl]ethyl}[1,3]dioxolo [4,5-h][1,2,4]triazolo[1,5-c]quinazolin-5-amine] | 40 nM
CC(F)(F)CN1CC(Cc2nc3c4ccc5c(c4nc(N)n3n2)OC(F)(F)O5)C1 [Example 152, 8-{[1-(2,2-difluoropropyl)azetidin-3-yl]methyl}-2,2-difluoro[1,3] dioxolo[4,5-h][1,2,4]triazolo[1,5-c]quinazolin-5-amine] | 5.5 nM
CC(c1nc2c3ccc4c(c3nc(N)n2n1)OC(F)(F)O4)N1CC(F)(F)C1 (single isomer, unassigned) [Example 131, (R or S)-8-[1-(3,3-difluoroazetidin-1-yl)ethyl]-2,2-difluoro[1,3]dioxolo [4,5-h][1,2,4]triazolo[1,5-c]quinazolin-5-amine] | 130 nM
COCCN1CCC(Cc2nc3c4ccc5c(c4nc(N)n3n2)OC(F)(F)O5)C1 (single isomer, unassigned) [Example 157, (R or S)-2,2-difluoro-8-{[1-(2-methoxyethyl)pyrrolidin-3-yl]methyl}[1,3]dioxolo [4,5-h][1,2,4]triazolo[1,5-c]quinazolin-5-amine] | 75 nM
CN(C)Cc1nc2c3ccc4c(c3nc(N)n2n1)OC(F)(F)O4 [Example 126, 8-[(dimethylamino)methyl]-2,2-difluoro[1,3]dioxolo[4,5-h][1,2,4] triazolo[1,5-c]quinazolin-5-amine] | 29 nM

The remaining lines, values ahead:

Ki | Compound
3 nM | Nc1nc2c3c(ccc2c2nc(CCN4CC(F)(F)C4)nn12)OC(F)(F)O3 [Example 19, 8-[2-(3,3-difluoroazetidin-1-yl)ethyl]-2,2-difluoro[1,3] dioxolo[4,5-h][1,2,4]triazolo [1,5-c]quinazolin-5-amine]
1.6 nM | Nc1nc2c3c(ccc2c2nc(CNCc4ccc(C(F)(F)F)cc4)nn12)OC(F)(F)O3 [Example 124, 2,2-difluoro-8-({[4-(trifluoromethyl)benzyl]amino}methyl)[1,3]dioxolo [4,5-h][1,2,4]triazolo[1,5-c]quinazolin-5-amine]
1.4 nM | Nc1nc2c3c(ccc2c2nc(CCN4CCC(F)(F)C4)nn12)OC(F)(F)O3 [Example 24, 8-[2-(3,3-difluoropyrrolidin-1-yl)ethyl]-2,2-difluoro[1,3] dioxolo[4,5-h][1,2,4]triazolo [1,5-c]quinazolin-5-amine]
0.8 nM | Nc1nc2c3c(ccc2c2nc(C4CCCN(CCC(F)(F)F)C4)nn12)OC(F)(F)O3 (single isomer, unassigned) [Example 140, (R or S)-2,2-difluoro-8-(1-(3,3,3-trifluoropropyl)piperidin-3-yl)-[1,3]dioxolo[4,5-h][1,2,4]triazolo[1,5-c]quinazolin-5-amine]
1.8 nM | Nc1nc2c3c(ccc2c2nc(CN4CCC(F)(F)C4)nn12)OC(F)(F)O3 [Example 116, 8-[(3,3-difluoropyrrolidin-1-yl)methyl]-2,2-difluoro[1,3]dioxolo[4,5-h][1,2,4] triazolo[1,5-c]quinazolin-5-amine]
2.8 nM | Nc1nc2c3c(ccc2c2nc(CN4CC(O)(C(F)(F)F)C4)nn12)OC(F)(F)O3 [Example 113, 11-[(5-amino-2,2-difluoro[1,3]dioxolo [4,5-h][1,2,4]triazolo[1,5-c]quinazolin-8-yl)methyl]-3-(trifluoromethyl) azetidin-3-ol]
1.6 nM | Nc1nc2c3c(ccc2c2nc(CCN4C[C@H](F)[C@@H](F)C4)nn12)OC(F)(F)O3 [Example 23, 8-{2-[(3S,4S)-3,4-difluoropyrrolidin-1-yl]ethyl}-2,2-difluoro[1,3]dioxolo[4,5-h][1,2,4]triazolo[1,5-c]quinazolin-5-amine]
3.8 nM | Nc1nc2c3c(ccc2c2nc(CCN4Cc5cnc(C(F)(F)F)nc5C4)nn12)OC(F)(F)O3 [Example 9, 2,2-difluoro-8-{2-[2-(trifluoromethyl)-5,7-dihydro-6H-pyrrolo[3,4-d]pyrimidin-6-yl]ethyl}[1,3]dioxolo[4,5-h][1,2,4]triazolo[1,5-c]quinazolin-5-amine]
2.1 nM | Nc1nc2c3c(ccc2c2nc(CCN4Cc5ccc(F)cc5C4)nn12)OC(F)(F)O3 [Example 8, 2,2-difluoro-8-[2-(5-fluoro-1,3-dihydro-2H-isoindol-2-yl)ethyl][1,3]dioxolo[4,5-h][1,2,4]triazolo[1,5-c]quinazolin-5-amine]
3.9 nM | C[C@H](Cc1nc2c3ccc4c(c3nc(N)n2n1)OC(F)(F)O4)N1CCc2ccncc2C1 [Example 77, 8-[(2R)-2-(3,4-dihydro-2,7-naphthyridin-2(1H)-yl)propyl]-2,2-difluoro[1,3]dioxolo[4,5-h] [1,2,4]triazolo[1,5-c]quinazolin-5-amine]
1.5 nM | C[C@@H]1C[C@H](F)CN1CCc1nc2c3ccc4c(c3nc(N)n2n1)OC(F)(F)O4 [Example 22, 2,2-difluoro-8-{2-[(2R,4S)-4-fluoro-2-methylpyrrolidin-1-yl]ethyl}[1,3]dioxolo[4,5-h][1,2,4]triazolo[1,5-c]quinazolin-5-amine]
3.7 nM | COCCOc1ccc(N2CCN(Cc3nc4c5ccc6c(c5nc(N)n4n3)OC(F)(F)O6)C3(CC3)C2)cc1 [Example 105, 2,2-difluoro-8-({7-[4-(2-methoxyethoxy)phenyl]-4,7-diazaspiro[2.5]oct-4-yl}methyl) [1,3]dioxolo[4,5-h][1,2,4]triazolo [1,5-c]quinazolin-5-amine]
4.2 nM | Nc1nc2c3c(ccc2c2nc(CN4CCCC(F)(F)C4)nn12)OC(F)(F)O3 [Example 118, 8-[(3,3-difluoropiperidin-1-yl)methyl]-2,2-difluoro[1,3]dioxolo[4,5-h][1,2,4] triazolo[1,5-c]quinazolin-5-amine]
3.9 nM | Nc1nc2c3c(ccc2c2nc(Cn4nc(C(F)(F)F)cc4C(F)(F)F)nn12)OC(F)(F)O3 [Example 130, 8-{[3,5-bis(trifluoromethyl)-1H-pyrazol-1-yl]methyl}-2,2-difluoro [1,3]dioxolo[4,5-h][1,2,4]triazolo [1,5-c]quinazolin-5-amine]
